Assay results reported in ChEMBL document CHEMBL1201862, “PubChem BioAssay data set” (2004).
Active and inactive are the calls of the source.

How the values were obtained:
[1] = inhibitors of intracellular T. cruzi replication, confirmation, NIH3T3 host cells, beta-gal luminescence (AID 2044); format: functional, cell-based;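 note: intracellular parasites grown in NIH/3T3 mouse fibroblasts as host cells; luminescent beta-galactosidase reporter signal from transgenic T. cruzi replicating inside host cells; inhibitors lower the luminescence signal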
INS1 = assay: beta cell apoptosis inhibitors, cytokine rescue, dose response, luminescence, retest (AID 449756); format: functional, cell-based; settings: Rattus norvegicus;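 note: cell death triggered by IL-1 beta plus TNF-alpha plus IFN-gamma mixture; protective hits raise ATP signal compared with cytokine alone wells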
BJ [2] = assay: cytotoxicity toward BJ-TERT fibroblasts, dose response, cell-based, RAS-independent, luminescence (AID 1933); format: functional; settings: Homo sapiens
BJ [3] = assay: cells; format: functional, cell-based; settings: Homo sapiens
BJ [4] = assay: cytotoxicity toward BJ-TERT-LT-ST fibroblasts, dose response, cell-based, RAS-independent, luminescence (AID 1935); format: functional; settings: Homo sapiens;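 note: BJ fibroblasts immortalized with TERT plus LT and ST oncogenes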
[5] = cytotoxicity toward DRD oncogenic fibroblasts, dose response, cell-based, non-viral oncogenic, luminescence (AID 1934); format: functional; settings: Homo sapiens
[6] = biological target: T1, Replicative DNA helicase DnaB (Mycobacterium tuberculosis, UniProt P9WMR3); assay: DnaB intein splicing inhibitors, dose response, biochemical, cell-free fluorescence (AID 449749); format: functional
T1 sequence (P9WMR3 whole entry): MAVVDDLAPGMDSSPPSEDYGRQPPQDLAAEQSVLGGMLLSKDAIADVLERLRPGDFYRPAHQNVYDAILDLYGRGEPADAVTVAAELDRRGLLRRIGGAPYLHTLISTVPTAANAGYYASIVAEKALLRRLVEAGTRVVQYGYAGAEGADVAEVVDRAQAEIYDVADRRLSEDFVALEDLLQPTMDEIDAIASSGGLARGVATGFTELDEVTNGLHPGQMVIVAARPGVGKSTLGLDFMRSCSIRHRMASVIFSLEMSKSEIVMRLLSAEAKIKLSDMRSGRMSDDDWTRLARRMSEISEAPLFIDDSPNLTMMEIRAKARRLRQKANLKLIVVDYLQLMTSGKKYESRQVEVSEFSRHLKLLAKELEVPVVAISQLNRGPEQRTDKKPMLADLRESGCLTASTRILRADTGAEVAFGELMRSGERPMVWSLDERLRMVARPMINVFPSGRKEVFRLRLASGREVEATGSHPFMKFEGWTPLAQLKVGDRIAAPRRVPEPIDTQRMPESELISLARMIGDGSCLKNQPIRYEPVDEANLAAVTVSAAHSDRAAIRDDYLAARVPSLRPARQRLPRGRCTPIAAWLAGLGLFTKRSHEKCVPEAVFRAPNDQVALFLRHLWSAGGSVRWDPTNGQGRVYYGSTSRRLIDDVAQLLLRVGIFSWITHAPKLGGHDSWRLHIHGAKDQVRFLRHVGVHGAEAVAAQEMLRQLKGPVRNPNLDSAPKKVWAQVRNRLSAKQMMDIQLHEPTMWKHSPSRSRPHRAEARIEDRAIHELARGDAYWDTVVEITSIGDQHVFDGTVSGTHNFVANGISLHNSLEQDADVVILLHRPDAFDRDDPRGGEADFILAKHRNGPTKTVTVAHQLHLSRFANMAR

Vero = Vero cell cytotoxicity, cytotoxicity control for flavivirus capping enzyme inhibitors (AID 588742); format: functional; settings: Chlorocebus sabaeus
Genome polyprotein = Genome polyprotein (dengue virus type 2, UniProt P29990); assay: Dengue-2 NS5 methyltransferase inhibitors, primary screen, biochemical, confirmation dose response (AID 588689); format: functional
Chain of Genome polyprotein (P29990 2492-3391 limits assumed): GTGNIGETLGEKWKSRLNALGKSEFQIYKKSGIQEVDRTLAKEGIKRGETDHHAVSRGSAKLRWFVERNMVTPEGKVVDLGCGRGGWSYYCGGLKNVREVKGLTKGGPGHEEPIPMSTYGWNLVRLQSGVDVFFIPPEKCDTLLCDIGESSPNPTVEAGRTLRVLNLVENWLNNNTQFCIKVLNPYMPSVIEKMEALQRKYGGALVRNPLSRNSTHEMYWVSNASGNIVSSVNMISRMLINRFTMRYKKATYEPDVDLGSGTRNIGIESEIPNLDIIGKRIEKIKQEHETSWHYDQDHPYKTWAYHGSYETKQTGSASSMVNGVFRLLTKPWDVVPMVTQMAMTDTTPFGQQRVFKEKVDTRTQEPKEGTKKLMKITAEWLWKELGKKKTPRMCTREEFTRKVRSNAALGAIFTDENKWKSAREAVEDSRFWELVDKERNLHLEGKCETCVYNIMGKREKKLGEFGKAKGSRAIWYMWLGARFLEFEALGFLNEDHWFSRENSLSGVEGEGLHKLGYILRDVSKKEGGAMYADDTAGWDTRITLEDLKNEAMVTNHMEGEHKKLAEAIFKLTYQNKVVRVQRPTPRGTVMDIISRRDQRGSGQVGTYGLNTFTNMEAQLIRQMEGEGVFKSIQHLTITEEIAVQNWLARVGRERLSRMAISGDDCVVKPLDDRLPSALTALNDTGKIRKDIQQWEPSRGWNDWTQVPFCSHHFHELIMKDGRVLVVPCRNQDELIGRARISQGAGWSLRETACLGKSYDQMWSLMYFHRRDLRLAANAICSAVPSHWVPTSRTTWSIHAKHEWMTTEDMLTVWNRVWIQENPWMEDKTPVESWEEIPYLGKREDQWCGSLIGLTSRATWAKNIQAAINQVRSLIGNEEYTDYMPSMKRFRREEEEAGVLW

Caspase-3 = biological target: T2, Caspase-3 (Homo sapiens, UniProt P42574); format: functional;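 note: Dose-response selectivity test against caspase-3 for candidate inhibitors of sentrin-specific proteases (SENPs)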
T2 sequence (P42574 whole entry): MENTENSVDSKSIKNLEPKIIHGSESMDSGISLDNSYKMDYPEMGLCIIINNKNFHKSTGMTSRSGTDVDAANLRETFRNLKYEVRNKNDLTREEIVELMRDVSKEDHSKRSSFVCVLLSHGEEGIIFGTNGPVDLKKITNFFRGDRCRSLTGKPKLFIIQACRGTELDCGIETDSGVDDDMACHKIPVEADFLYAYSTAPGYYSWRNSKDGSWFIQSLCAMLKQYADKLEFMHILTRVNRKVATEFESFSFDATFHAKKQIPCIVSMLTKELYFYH

[7] = biological target: T3, Sentrin-specific protease 8 (Homo sapiens, UniProt Q96LD8); format: functional;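 note: luminescence read-out of SENP8 inhibition, dose-response confirmation following an ultra-high-throughput screen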
T3 sequence (Q96LD8 whole entry): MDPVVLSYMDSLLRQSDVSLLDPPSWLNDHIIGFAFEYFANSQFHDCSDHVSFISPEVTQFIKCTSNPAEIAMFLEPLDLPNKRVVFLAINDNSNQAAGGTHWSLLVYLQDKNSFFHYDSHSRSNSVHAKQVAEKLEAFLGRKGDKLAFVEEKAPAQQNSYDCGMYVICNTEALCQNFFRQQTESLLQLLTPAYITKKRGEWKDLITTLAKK

Caspase-8 = Caspase-8 (Homo sapiens, UniProt Q14790); assay: caspase-8 inhibition counter-screen, dose response, selectivity assay for caspase-6 inhibitor project, biochemical, Z-IETD-R110 fluorescence, cherry-picked samples (AID 743294)
Chain of Caspase-8 (Q14790 217-374 limits assumed): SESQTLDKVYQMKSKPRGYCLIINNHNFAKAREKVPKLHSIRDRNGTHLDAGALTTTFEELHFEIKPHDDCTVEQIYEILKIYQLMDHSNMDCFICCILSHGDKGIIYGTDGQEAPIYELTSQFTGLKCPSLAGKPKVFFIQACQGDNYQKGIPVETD
Chain of Caspase-8 (Q14790 385-479 limits assumed): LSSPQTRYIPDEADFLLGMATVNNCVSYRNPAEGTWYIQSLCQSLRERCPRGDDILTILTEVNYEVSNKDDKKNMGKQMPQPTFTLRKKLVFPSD

Cysteine protease ATG4B = biological target: T4, Cysteine protease ATG4B (Homo sapiens, UniProt Q9Y4P1); format: functional;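 note: Fluorescence-based dose-response confirmation assay measuring inhibition of ATG4B activity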
T4 sequence (Q9Y4P1 whole entry): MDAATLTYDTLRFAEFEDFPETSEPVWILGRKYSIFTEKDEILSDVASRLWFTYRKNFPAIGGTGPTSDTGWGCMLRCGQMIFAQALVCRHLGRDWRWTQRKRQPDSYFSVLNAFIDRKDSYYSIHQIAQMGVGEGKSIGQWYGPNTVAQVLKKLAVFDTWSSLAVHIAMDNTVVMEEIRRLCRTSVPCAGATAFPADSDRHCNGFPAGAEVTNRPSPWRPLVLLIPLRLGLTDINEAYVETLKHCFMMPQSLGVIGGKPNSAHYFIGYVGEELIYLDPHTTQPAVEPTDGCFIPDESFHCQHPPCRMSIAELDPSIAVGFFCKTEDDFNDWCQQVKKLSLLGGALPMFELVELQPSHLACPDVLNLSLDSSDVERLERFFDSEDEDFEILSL

[8] = biological target: 1-phosphatidylinositol 4,5-bisphosphate phosphodiesterase gamma-1 (Homo sapiens, UniProt P19174); assay: Counterscreen for inhibitors of phospholipase C isozymes (PLC-B3): Fluorescence-based biochemical high throughput dose response assay to identify inhibitors of phospholipase C isozymes (PLC-gamma1).
Chain of 1-phosphatidylinositol 4,5-bisphosphate phosphodiesterase gamma-1 (P19174 whole entry): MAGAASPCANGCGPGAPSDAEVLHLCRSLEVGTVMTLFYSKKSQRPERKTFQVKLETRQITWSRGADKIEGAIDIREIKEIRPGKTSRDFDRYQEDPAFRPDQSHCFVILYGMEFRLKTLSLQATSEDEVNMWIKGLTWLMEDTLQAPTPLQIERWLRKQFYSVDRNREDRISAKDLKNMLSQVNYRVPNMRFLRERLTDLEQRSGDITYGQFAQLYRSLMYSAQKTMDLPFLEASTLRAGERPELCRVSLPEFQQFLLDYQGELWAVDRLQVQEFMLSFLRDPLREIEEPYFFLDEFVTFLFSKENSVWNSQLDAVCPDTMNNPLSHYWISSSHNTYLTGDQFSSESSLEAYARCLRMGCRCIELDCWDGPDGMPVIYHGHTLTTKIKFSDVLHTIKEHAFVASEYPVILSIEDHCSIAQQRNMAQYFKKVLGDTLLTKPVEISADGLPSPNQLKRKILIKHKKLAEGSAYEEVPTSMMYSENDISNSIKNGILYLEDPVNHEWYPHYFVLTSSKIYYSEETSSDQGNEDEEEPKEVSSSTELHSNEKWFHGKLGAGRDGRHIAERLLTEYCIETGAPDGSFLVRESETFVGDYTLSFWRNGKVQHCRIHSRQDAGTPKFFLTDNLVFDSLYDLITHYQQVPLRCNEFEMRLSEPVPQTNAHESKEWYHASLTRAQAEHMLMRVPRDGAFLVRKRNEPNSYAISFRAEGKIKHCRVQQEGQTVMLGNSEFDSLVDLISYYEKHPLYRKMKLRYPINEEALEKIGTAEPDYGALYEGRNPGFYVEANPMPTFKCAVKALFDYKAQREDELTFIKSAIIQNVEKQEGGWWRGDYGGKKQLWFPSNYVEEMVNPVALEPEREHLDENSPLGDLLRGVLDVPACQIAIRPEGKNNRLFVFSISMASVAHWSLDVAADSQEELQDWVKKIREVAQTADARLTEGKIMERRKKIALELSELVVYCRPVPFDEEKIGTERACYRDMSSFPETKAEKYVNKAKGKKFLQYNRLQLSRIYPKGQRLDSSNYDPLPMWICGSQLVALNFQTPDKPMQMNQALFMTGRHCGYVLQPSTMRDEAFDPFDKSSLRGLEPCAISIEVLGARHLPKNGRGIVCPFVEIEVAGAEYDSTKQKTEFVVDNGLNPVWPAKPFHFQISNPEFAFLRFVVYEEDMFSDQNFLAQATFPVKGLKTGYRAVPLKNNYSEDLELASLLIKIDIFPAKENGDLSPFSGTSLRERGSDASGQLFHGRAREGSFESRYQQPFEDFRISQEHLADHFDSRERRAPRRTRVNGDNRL

[9] = biological target: 1-phosphatidylinositol 4,5-bisphosphate phosphodiesterase beta-3 (Homo sapiens, UniProt Q01970); assay: Fluorescence-based biochemical high throughput dose response assay to identify inhibitors of phospholipase C isozymes (PLC-B3).
Chain of 1-phosphatidylinositol 4,5-bisphosphate phosphodiesterase beta-3 (Q01970 whole entry): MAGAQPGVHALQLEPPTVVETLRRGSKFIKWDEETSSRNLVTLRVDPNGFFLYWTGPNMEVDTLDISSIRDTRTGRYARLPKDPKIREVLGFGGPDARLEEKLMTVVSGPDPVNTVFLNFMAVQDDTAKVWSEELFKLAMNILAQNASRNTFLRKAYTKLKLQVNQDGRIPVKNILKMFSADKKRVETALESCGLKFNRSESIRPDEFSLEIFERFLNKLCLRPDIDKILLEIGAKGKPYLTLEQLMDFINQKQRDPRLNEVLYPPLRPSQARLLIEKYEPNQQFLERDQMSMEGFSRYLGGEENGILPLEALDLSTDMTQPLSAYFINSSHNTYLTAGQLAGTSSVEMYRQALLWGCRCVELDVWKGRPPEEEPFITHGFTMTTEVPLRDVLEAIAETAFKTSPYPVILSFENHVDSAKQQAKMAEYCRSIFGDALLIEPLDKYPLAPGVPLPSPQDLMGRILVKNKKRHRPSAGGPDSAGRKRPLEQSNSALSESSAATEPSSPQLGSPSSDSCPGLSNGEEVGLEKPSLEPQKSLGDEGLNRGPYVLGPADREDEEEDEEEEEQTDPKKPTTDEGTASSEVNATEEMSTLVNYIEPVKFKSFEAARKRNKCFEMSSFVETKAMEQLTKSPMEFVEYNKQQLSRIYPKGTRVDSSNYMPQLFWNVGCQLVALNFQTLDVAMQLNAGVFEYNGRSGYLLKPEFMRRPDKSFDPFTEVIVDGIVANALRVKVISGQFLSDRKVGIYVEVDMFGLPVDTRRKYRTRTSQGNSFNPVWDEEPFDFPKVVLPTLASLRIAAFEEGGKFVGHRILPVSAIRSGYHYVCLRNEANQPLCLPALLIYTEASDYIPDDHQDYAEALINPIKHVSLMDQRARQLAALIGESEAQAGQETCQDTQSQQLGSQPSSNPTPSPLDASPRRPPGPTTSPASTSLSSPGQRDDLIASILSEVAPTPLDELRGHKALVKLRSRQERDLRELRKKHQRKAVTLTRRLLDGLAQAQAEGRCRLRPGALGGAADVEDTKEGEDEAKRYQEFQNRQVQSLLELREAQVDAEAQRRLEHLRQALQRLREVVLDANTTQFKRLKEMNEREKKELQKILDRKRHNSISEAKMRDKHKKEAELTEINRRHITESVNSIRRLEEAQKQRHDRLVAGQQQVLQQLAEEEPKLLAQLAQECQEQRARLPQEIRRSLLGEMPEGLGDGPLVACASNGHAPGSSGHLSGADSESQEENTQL

[10] = biological target: Induced myeloid leukemia cell differentiation protein Mcl-1 (Homo sapiens, UniProt Q07820); format: functional
Chain of Induced myeloid leukemia cell differentiation protein Mcl-1 (Q07820 whole entry): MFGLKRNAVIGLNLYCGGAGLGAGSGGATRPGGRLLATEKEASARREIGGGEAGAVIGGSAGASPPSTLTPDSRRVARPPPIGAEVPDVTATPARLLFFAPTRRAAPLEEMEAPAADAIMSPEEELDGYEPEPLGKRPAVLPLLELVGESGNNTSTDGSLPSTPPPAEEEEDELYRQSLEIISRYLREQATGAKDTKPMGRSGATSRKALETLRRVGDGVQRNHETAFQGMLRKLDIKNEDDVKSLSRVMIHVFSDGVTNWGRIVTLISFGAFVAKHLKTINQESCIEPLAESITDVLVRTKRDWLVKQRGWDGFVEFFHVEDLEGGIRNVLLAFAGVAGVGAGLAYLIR

For `CCCC(=O)NC(c1ccccc1OC)c1ccc2cccnc2c1O` (stereo not given), the EC50 [1] was 0.532 µM (active) and the AC50 (INS1) was 1.14 µM (active).
For `COC(=O)[C@@H]1[C@@H](C(=O)OC)C2(c3ccccc3-c3ccccc32)N(c2ccc(Cl)cc2)N1C#N`, the EC50 (BJ [2]) was 2.87 µM (inconclusive), the EC50 (BJ [3]) was 6.23 µM (active) and the EC50 [1] was 2.24 µM (active). For the same compound, the EC50 (BJ [4]) was 5.02 µM (active), the EC50 [5] was 4.84 µM (active) and the AC50 [6] was > 120 µM (inactive).
In the case of `COC(CNC(=O)c1ccc2c3c(onc13)-c1ccccc1C2=O)OC`, the AC50 [6] is reported as 3.06 µM (active), the CC50 (Vero) is reported as 20.4 µM (active) and the IC50 (Genome polyprotein) is reported as 4.67 µM (active).
In the case of `COc1ccc(OC)c(Nc2cc3ccccc3c(O)n2)c1`, the IC50 (Caspase-3) is reported as 1.88 µM (active), the IC50 [7] is reported as 2.45 µM (active) and the AC50 [6] is reported as > 120 µM (inconclusive). The AC50 (Caspase-8) was 6.14 µM (active).
In the case of `Nc1ccc2c(c1)C(=O)C(=O)c1ccccc1-2`, the EC50 (BJ [2]) is reported as 2.58 µM (inconclusive), the EC50 (BJ [3]) is reported as 4.11 µM (active) and the EC50 (BJ [4]) is reported as 3.12 µM (inconclusive). The EC50 [5] was 4.42 µM (active), the IC50 (Cysteine protease ATG4B) was 1.56 µM (active) and the AC50 [6] was 5.32 µM (active). The AC50 (INS1) was 1.06 µM (active), the IC50 [8] was 5.14 µM (active) and the IC50 [9] was > 122 µM (inactive).
For `COc1cc(-c2ccc(Nc3ccccc3C(=O)O)c(OC)c2)ccc1Nc1ccccc1C(=O)O`, the IC50 [10] was 1.52 µM (active), the IC50 (Genome polyprotein) was 18.8 µM (active) and the AC50 (Caspase-8) was 48 µM (active).
In the case of `O=C(O)c1ccc(NC2=C/C(=N/S(=O)(=O)c3ccccc3)c3ccccc3C2=O)cc1`, the IC50 [10] is reported as 1.65 µM (active), the IC50 (Caspase-3) is reported as 4.5 µM (active) and the IC50 [7] is reported as 1.38 µM (active). The IC50 (Cysteine protease ATG4B) was 10.1 µM (active), the CC50 (Vero) was 31.4 µM (active) and the IC50 (Genome polyprotein) was 17.1 µM (active). The IC50 [8] was 45.5 µM (inactive) and the IC50 [9] was > 122 µM (inactive).
